Literature values, collected in patent US7053240B2, “Process for synthesizing disulfides” (BioNumerik Pharmaceuticals, Inc., priority 2003, dated 2006).

Legend:
dogs = details: intravenously, doses higher than 3750 mg/kg
mice = details: intravenously, doses higher than 3750 mg/kg
[1] = accepted value

## O=S(=O)(O)CCSSCCS(=O)(=O)O [Dimesna, disodium 2,2′-dithiobis ethane sulfonate]
dogs
  adverse effects: no adverse effects
mice
  adverse effects: no adverse effects

## [Cl-].[Na+] [common table salt]
[1]
  oral LD50: 3750 mg/kg
